Experiments:
5-HT1A receptor = target: T1, 5-HT1A receptor (Homo sapiens, UniProt P08908); assay: human monoamine GPCR binding profile, 5-HT1A; conditions: at least about 30 fold to over 1500 fold lower IC50
T1 construct: expressed in transfected cells
T1 sequence (P08908 1-422): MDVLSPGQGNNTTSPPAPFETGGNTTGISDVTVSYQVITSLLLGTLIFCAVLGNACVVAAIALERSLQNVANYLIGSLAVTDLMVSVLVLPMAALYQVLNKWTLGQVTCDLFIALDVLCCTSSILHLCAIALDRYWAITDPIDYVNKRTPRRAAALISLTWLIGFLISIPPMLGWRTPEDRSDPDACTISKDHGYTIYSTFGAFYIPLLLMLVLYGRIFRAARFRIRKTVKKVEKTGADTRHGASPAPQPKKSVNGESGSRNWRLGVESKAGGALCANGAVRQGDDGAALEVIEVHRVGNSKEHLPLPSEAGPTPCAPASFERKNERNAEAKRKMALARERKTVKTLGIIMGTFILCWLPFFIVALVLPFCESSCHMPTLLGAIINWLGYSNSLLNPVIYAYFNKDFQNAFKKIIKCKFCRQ
Excerpt: (§1) As known in the art, human monoamine GPCR binding profiles were obtained using heterologously expressed cloned human GPCRs in the binding experiments. Both pKi and IC50 (nM concentration) values were obtained as well as an average value of each from at least three determinations.

D2A = target: T2, D2A (Homo sapiens, UniProt P14416); assay: dopaminergic receptor binding, D2A; conditions: result in words
T2 construct: expressed in transfected cells
T2 sequence (P14416 whole entry): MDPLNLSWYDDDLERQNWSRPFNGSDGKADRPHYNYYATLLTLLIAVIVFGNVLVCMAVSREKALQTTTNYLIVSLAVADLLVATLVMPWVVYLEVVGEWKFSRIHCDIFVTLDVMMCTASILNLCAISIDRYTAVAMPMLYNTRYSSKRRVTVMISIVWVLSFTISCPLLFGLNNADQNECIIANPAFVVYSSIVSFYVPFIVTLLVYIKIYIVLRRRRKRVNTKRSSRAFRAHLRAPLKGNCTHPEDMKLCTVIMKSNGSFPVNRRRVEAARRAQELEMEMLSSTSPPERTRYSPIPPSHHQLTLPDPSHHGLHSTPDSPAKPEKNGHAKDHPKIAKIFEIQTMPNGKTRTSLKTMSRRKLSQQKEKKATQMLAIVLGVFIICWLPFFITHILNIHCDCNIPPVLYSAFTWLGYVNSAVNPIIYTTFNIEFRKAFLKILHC
Experimental: as §1
(§2) Dopaminergic receptors D2A, D2B, D3, and D4 were also tested.

D2B = target: T3, D2B (Homo sapiens, UniProt P14416); assay: dopaminergic receptor binding, D2B; conditions: result in words
T3 construct: expressed in transfected cells
T3 sequence (P14416 1-414 isoform P14416-2): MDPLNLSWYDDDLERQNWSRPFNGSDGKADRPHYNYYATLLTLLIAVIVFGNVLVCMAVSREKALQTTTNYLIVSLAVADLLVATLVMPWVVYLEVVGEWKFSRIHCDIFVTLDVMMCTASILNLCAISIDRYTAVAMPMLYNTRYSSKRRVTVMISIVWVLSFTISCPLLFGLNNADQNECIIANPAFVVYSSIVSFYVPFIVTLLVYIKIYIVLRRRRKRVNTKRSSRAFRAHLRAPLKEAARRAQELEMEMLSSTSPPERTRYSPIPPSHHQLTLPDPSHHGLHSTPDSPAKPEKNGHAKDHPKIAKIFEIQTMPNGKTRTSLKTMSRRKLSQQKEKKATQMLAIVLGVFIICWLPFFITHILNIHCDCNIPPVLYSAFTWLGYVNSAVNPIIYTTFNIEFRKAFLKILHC
Experimental: as §1, §2

D3 = target: T4, D3 (Homo sapiens, UniProt P35462); assay: dopaminergic receptor binding, D3; conditions: result in words
T4 construct: expressed in transfected cells
T4 sequence (P35462 whole entry): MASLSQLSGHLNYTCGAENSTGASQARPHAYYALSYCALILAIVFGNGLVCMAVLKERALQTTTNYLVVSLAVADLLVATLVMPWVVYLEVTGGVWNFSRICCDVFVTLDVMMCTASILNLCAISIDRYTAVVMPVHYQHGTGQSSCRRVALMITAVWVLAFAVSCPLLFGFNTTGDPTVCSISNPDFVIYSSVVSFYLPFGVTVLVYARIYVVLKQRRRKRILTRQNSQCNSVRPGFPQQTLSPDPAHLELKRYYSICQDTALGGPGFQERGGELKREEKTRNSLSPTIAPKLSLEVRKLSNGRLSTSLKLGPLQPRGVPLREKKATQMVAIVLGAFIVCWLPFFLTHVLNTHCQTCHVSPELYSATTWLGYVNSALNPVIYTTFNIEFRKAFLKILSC
Experimental: as §1, §2

Alpha 2A = target: T5, Alpha 2A (Homo sapiens, UniProt P08913); assay: alpha-adrenergic receptor binding, Alpha 2A; conditions: result in words
T5 construct: expressed in transfected cells
T5 sequence (P08913 1-465): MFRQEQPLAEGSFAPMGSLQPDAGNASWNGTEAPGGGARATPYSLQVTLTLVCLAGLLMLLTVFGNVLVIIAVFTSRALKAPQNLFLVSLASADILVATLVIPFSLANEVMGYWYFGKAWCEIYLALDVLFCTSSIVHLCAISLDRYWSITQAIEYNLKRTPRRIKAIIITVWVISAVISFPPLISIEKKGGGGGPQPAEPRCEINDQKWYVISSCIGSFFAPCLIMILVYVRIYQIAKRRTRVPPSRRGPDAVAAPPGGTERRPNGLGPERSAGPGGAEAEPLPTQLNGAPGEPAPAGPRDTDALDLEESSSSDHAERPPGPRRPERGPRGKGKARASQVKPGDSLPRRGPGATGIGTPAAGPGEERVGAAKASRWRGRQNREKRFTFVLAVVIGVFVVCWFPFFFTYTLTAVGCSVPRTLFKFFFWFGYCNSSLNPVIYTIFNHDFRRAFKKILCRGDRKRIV
Experimental: as §1, §2

Alpha 2B = target: T6, Alpha 2B (Homo sapiens, UniProt P18089); assay: alpha-adrenergic receptor binding, Alpha 2B; conditions: result in words
T6 construct: expressed in transfected cells
T6 sequence (P18089 1-450): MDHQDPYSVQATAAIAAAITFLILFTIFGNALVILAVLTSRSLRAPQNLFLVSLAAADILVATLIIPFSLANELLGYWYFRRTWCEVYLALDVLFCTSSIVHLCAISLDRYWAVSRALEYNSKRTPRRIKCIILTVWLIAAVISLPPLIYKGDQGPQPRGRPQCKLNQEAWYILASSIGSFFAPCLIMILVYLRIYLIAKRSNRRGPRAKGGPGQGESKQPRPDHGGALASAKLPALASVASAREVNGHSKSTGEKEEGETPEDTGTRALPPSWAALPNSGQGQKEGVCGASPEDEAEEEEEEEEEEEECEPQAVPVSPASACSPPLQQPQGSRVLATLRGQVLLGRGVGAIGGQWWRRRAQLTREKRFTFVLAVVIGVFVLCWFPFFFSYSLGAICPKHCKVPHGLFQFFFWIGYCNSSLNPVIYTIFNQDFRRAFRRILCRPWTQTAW
Experimental: as §1, §2

Alpha 2C receptor = target: T7, Alpha 2C receptor (Homo sapiens, UniProt P18825); assay: alpha-adrenergic receptor binding, Alpha 2C; conditions: result in words
T7 construct: expressed in transfected cells
T7 sequence (P18825 1-462): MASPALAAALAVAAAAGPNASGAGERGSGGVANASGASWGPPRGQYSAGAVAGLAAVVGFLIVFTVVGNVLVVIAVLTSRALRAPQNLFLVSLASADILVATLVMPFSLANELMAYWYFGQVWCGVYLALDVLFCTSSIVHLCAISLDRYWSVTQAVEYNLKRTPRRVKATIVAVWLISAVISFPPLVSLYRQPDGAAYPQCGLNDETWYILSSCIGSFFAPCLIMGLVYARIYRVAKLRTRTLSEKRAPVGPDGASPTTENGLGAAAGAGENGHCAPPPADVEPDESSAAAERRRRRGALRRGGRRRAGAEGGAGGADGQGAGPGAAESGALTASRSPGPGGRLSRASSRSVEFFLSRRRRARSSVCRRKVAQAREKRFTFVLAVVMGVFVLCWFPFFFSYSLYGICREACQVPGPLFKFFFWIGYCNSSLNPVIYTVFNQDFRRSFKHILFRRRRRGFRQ
Experimental: as §1, §2

[1] = plasma levels of 3-OH gepirone after administration of gepirone; type: in vivo; conditions: human subjects administered a dose of gepirone; FIG. 2; result in words
Experimental: “Time (H)” represents time after administration.
Each sample corresponds to a 0.5 ml plasma sample, extracted with 6 ml of (2:1) (v/v) hexane:chloroform for 1 hour. After separation by centrifuge, the organic layer is transferred to a 10 ml conical tube and 90 ul of 1% formic acid is added. The tube is vortexed for 10 minutes and centrifuged for 5 minutes. About 80 ul of the formic acid layer is transferred into injection vials for HPLC/MS analysis.

[2] = cited from earlier work; for half-life: result in words

| Structure (SMILES) | selectivity for the 5-HT1A receptor compared to the 5-HT2, 5-HT6, and 5-HT7 receptors (fold lower IC50) (5-HT1A receptor) | dopaminergic binding at D2A (D2A) | dopaminergic binding at D2B (D2B) | dopaminergic binding at D3 (D3) | affinity at Alpha 2A (Alpha 2A) | affinity at Alpha 2B (Alpha 2B) | binding at the Alpha 2C receptor (Alpha 2C receptor) | plasma levels of 3-OH gepirone [1] | half-life [2] | bioavailability ([2]; delivered orally) |
| --- | --- | --- | --- | --- | --- | --- | --- | --- | --- | --- |
| CC1(C)CC(=O)N(CCCCN2CCN(c3ncccn3)CC2)C(=O)C1O (centres unmarked) [3-OH gepirone, 4,4-Dimethyl-3-hydroxy-1-[4-[4-(2-pyrimidinyl)-1-piperazinyl]butyl]-2,6-piperidinedione] | at least 30 fold | insignificant | insignificant | insignificant | did not display significant affinity | did not display significant affinity | weak binding | available quickly and persists in the plasma for extended periods of time |  |  |
| O=C1CC2(CCCC2)CC(=O)N1CCCCN1CCN(c2ncccn2)CC1 [buspirone] |  |  |  |  |  |  |  |  | very short |  |
| CC1(C)CC(=O)N(CCCCN2CCN(c3ncccn3)CC2)C(=O)C1 [gepirone, 4-dimethyl-1-[4-[4-(2-pyrimidinyl)-1-piperazinyl]butyl]-2,6-piperidinedione] |  |  |  |  |  |  |  |  | very short | 14-18% |

Source: patent publication US20030220346A1 (priority 2003, published 2003)
